Measured values from patent US9303015B2, “Heteroaryl linked quinolinyl modulators of RORγt” (Janssen Pharmaceutica NV, priority 2012, dated 2016).
Structures can show the parent of a compound that is named as a salt.

Legend:
human RORγt LBD = human RORγt LBD (Homo sapiens (Human), UniProt P51449); assay: RORγt reporter assay (GAL4-RORγt LBD luciferase, HEK293T cells); type: cell-based; conditions: for inhibition at 6 µM: HEK-293T, read-out: RORγt reporter Assay, % inhibition @ 6 μM, 6 μM, HEK293T cells; for RORγt reporter Assay, % inhibition @ 6 μM: HEK293T cells
Source text: A reporter assay was used to test functional activity of RORγt modulatory compounds on transcriptional activation driven by the RORγt LBD. Cells used in the assay were co-transfected with two constructs. The first construct, pBIND-RORγt LBD, contained the wild type human RORγt LBD fused to the DNA binding domain of the GAL4 protein. The second construct, pGL4.31 (Promega Cat no. C935A), contained multiple GAL4 responsive DNA elements upstream of firefly luciferase. […] The mutant construct was called pBIND-RORγt-AF2. […] The pBIND vector contains the GAL4 DNA Binding Domain (GAL4 DBD) and the renilla luciferase gene under control of the SV40 promoter. Renilla luciferase expression serves as a control for transfection efficiency and cell viability.
The reporter assay was performed by transiently transfecting HEK293T cells with 5 μg of pBIND-RORγt LBD or pBIND-RORγt LBD-AF2 and 5 μg pGL4.31 (Promega Cat no. C935A) using Fugene 6 (Invitrogen Cat no. E2691) at a 1:6 ratio of DNA: Fugene 6 in a T-75 flask in which cells were at least 80% confluent. Twenty four hours after bulk transfection, cells were plated into 96-well plates at 50,000 cells/well in phenol-red free DMEM containing 5% Lipid Reduced FCS and Pen/Strep. Six hours after plating, cells were treated with compounds for 24 hours. Media was removed and cells were lysed with 50 μL 1x Glo Lysis Buffer (Promega). Dual Glo Luciferase Reagent (50 μL/well) was then added and firefly luciferase luminescence was read on an Envision after a ten minute incubation. Finally, Stop and Glo reagent (50 μL/well) was added and renilla luciferase luminescence was read on an Envision after a ten minute incubation. To calculate the effect of compounds on RORγt activity, the ratio of firefly to renilla luciferase was determined and plotted against compound concentration. Agonist compounds increase RORγt-driven luciferase expression, and antagonist or inverse agonist compounds decrease luciferase expression.

[1] = system: IL-17 production by CD4 T cells; assay: Human Th17 assay; type: cell-based; conditions: IL-17 in supernatant after 3 days, human CD4+ T cells under Th17 differentiation
Source text: The human Th17 assay tests the effect of RORγt modulatory compounds on IL-17 production by CD4 T cells under conditions which favor Th17 differentiation.
Total CD4^+ T cells were isolated from the peripheral blood mononuclear cells (PBMC) of healthy donors using a CD4^+ T cell isolation kit II, following the manufacturer's instructions (Miltenyi Biotec). Cells were resuspended in a medium of RPMI-1640 supplemented with 10% fetal bovine serum, penicillin, streptomycin, glutamate, and β-mercaptoethanol and were added to 96-well plates at 1.5×10^5 per 100 μL per well. 50 μL of compound at titrated concentrations in DMSO were added into each well at final DMSO concentration at 0.2%. Cells were incubated for 1 hour, then 50 μL of Th17 cell differentiation medium was added to each well. The final concentrations of antibodies and cytokines (R&D Systems) in differentiation medium were: 3×10^6/mL anti-CD3/CD28 beads (prepared using human T cell activation/expansion kit, Miltenyi Biotec), 10 μg/mL anti-IL4, 10 μg/mL anti-IFNγ, 10 ng/mL IL113, 10 ng/mL IL23, 50 ng/mL IL6, 3 ng/mL TGFβ and 20 U/mL IL2. Cells were cultured at 37° C. and 5% CO2 for 3 days. Supernatants were collected and the accumulated IL-17 in culture was measured by using MULTI-SPOT® Cytokine Plate following manufacture's instruction (Meso Scale Discovery). The plate was read using Sector Imager 6000, and IL-17 concentration was extrapolated from the standard curve. The IC50s were determined by GraphPad.

human RORγt LBD, sequence (P51449 258-518): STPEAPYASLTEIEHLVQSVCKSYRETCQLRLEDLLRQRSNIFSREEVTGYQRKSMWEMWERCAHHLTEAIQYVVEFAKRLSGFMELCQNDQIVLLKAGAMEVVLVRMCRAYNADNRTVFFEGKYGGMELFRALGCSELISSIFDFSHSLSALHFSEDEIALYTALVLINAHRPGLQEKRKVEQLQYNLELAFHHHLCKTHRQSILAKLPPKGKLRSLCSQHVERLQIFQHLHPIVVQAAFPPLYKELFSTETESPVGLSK

Row | inhibition at 6 µM (human RORγt LBD) [%] | IC50 ([1]; Homo sapiens, CD4+ T, 72 h) [µM] | RORγt reporter Assay, % inhibition @ 6 μM (human RORγt LBD) [%] | IC50 [1] [µM] | SMILES
1 | 89 | 0.51 | – | – | CCN(CC)c1nc2ccc(C(O)(c3ccc(Cl)cc3)c3cncn3C)cc2c(C(F)(F)F)c1Oc1ccc(Cl)cc1 (stereo not drawn) [Example 26, (3-(4-Chlorophenoxy)-2-(diethylamino)-4-(trifluoromethyl)quinolin-6-yl)(4-chlorophenyl)(1-methyl-1H-imidazol-5-yl)methanol.TFA]
2 | – | 0.44 | 92 | – | CCOc1nc2ccc(C(O)(c3ccc(C(F)(F)F)nc3)c3cncn3C)cc2c(C(F)(F)F)c1Oc1ccc(Cl)cc1 (single isomer, unassigned) [Example 25b, (3-(4-Chlorophenoxy)-2-ethoxy-4-(trifluoromethyl)quinolin-6-yl)(1-methyl-1H-imidazol-5-yl)(6-(trifluoromethyl)pyridin-3-yl)methanol]
3 | 99 | 0.12 | – | – | CCN(CC)c1nc2ccc(C(O)(c3ccc(OC)nc3)c3cncn3C)cc2c(C(F)(F)F)c1Oc1ccc(Cl)cc1 (stereo not drawn) [Example 28, (3-(4-Chlorophenoxy)-2-(diethylamino)-4-(trifluoromethyl)quinolin-6-yl)(6-methoxypyridin-3-yl)(1-methyl-1H-imidazol-5-yl)methanol.TFA]
4 | – | – | 97 | 0.078 | CCOc1nc2ccc(C(O)(c3ccc(OC)nc3)c3cncn3C)cc2c(Cl)c1Oc1ccccc1 (single isomer, unassigned) [Example 10b]
5 | 89 | 0.18 | – | – | CCN(CC)c1nc2ccc(C(O)(c3ccc(C(F)(F)F)nc3)c3cncn3C)cc2c(C(F)(F)F)c1Oc1ccc(Cl)cc1 (stereo not drawn) [Example 27a, (3-(4-Chlorophenoxy)-2-(diethylamino)-4-(trifluoromethyl)quinolin-6-yl)(1-methyl-1H-imidazol-5-yl)(6-(trifluoromethyl)pyridin-3-yl)methanol]
6 | – | – | 101 | 0.056 | Cn1cncc1C(O)(c1ccc(Cl)cc1)c1ccc2nc(N3CCC3)c(Oc3ccc(C#N)cc3)c(Cl)c2c1 (single isomer, unassigned) [Example 32c, 4-((2-(Azetidin-1-yl)-4-chloro-6-((4-chlorophenyl)(hydroxyl)(1-methyl-1H-imidazol-5-yl)methyl)quinolin-3-yl)oxy)benzonitrile]
7 | 85 | 0.17 | – | – | Cn1cncc1C(O)(c1ccc(Cl)cc1)c1ccc2nc(C#N)c(Oc3ccccc3)c(Cl)c2c1 (stereo not drawn) [Example 19, 4-Chloro-6-((4-chlorophenyl)(hydroxy)(1-methyl-1H-imidazol-5-yl)methyl)-3-phenoxyquinoline-2-carbonitrile.TFA]
8 | 99 | 0.11 | – | – | COc1ccc(C(O)(c2ccc3nc(N(C)C)c(Oc4ccccc4)c(Cl)c3c2)c2cncn2C)cn1 (stereo not drawn) [Example 17, (4-Chloro-2-(dimethylamino)-3-phenoxyquinolin-6-yl)(6-methoxypyridin-3-yl)(1-methyl-1H-imidazol-5-yl)methanol]
9 | 101 | 0.11 | – | – | Cn1cncc1C(O)(c1ccc(Cl)cc1)c1ccc2nc(N3CCC3)c(Oc3ccc(C#N)cc3)c(Cl)c2c1 (single isomer, unassigned) [Example 32b, 4-((2-(Azetidin-1-yl)-4-chloro-6-((4-chlorophenyl)(hydroxyl)(1-methyl-1H-imidazol-5-yl)methyl)quinolin-3-yl)oxy)benzonitrile]
10 | 103 | – | – | 0.064 | Cn1cncc1C(O)(c1ccc(C(F)(F)F)nc1)c1ccc2nc(N3CCC3)c(Oc3ccc(Cl)cc3)c(Cl)c2c1 (single isomer, unassigned) [Example 30b, (2-(Azetidin-1-yl)-4-chloro-3-(4-chlorophenoxy)quinolin-6-yl)(1-methyl-1H-imidazol-5-yl)(6-(trifluoromethyl)pyridin-3-yl)methanol]

Second part, the compound before the results:

Row | SMILES | inhibition at 6 µM (human RORγt LBD) [%] | IC50 ([1]; Homo sapiens, CD4+ T, 72 h) [µM] | RORγt reporter Assay, % inhibition @ 6 μM (human RORγt LBD) [%] | IC50 [1] [µM]
11 | CCN(CC)c1nc2ccc(C(O)(c3cccnc3)c3cccc(Cl)c3)cc2c(Cl)c1Oc1ccccc1 (stereo not drawn) [Example 7, (4-Chloro-2-(diethylamino)-3-phenoxyquinolin-6-yl)(3-chlorophenyl)(pyridin-3-yl)methanol] | 91 | 0.11 | – | –
12 | CCOc1nc2ccc(C(O)(c3ccc(Cl)cc3)c3cncn3C)cc2c(Cl)c1Oc1ccccc1 (single isomer, unassigned) [Example 2c] | – | – | 92 | 0.21
13 | CCN(CC)c1nc2ccc(C(O)(c3ccc(C(F)(F)F)nc3)c3cncn3C)cc2c(Cl)c1Oc1ccccc1 (single isomer, unassigned) [Example 6c, (4-Chloro-2-(diethylamino)-3-phenoxyquinolin-6-yl)(1-methyl-1H-imidazol-5-yl)(6-(trifluoromethyl)pyridin-3-yl)methanol] | – | – | 88 | 0.21
14 | CCN(CC)c1nc2ccc(C(O)(c3ccc(C(F)(F)F)nc3)c3cncn3C)cc2c(Cl)c1Oc1ccccc1 (single isomer, unassigned) [Example 6b, (4-Chloro-2-(diethylamino)-3-phenoxyquinolin-6-yl)(1-methyl-1H-imidazol-5-yl)(6-(trifluoromethyl)pyridin-3-yl)methanol] | 93 | – | – | 0.05
15 | CCN(CC)c1nc2ccc(C(O)(c3ccc(OC)nc3)c3cncn3C)cc2c(Cl)c1Oc1ccccc1 (single isomer, unassigned) [Example 5c, (4-Chloro-2-(diethylamino)-3-phenoxyquinolin-6-yl)(6-methoxypyridin-3-yl)(1-methyl-1H-imidazol-5-yl)methanol] | – | – | 104 | 0.11
16 | CCN(CC)c1nc2ccc(C(O)(c3ccc(C(F)(F)F)nc3)c3cncn3C)cc2c(Cl)c1Oc1ccc(F)cc1 (single isomer, unassigned) [Example 9b] | – | – | 81 | 0.32
17 | CCN(CC)c1nc2ccc(C(O)(c3ccc(OC)nc3)c3cncn3C)cc2c(Cl)c1Oc1ccccc1 (single isomer, unassigned) [Example 5b, (4-Chloro-2-(diethylamino)-3-phenoxyquinolin-6-yl)(6-methoxypyridin-3-yl)(1-methyl-1H-imidazol-5-yl)methanol] | 98 | 0.085 | – | –
18 | CCN(CC)c1nc2ccc(C(O)(c3ccc(C(F)(F)F)nc3)c3cncn3C)cc2c(Cl)c1Oc1ccccc1 (stereo not drawn) [Example 6a, (4-Chloro-2-(diethylamino)-3-phenoxyquinolin-6-yl)(1-methyl-1H-imidazol-5-yl)(6-(trifluoromethyl)pyridin-3-yl)methanol] | 102 | 0.096 | – | –
19 | CCN(CC)c1nc2ccc(C(O)(c3ccc(OC)nc3)c3cncn3C)cc2c(Cl)c1Oc1ccccc1 (stereo not drawn) [Example 5a, (4-Chloro-2-(diethylamino)-3-phenoxyquinolin-6-yl)(6-methoxypyridin-3-yl)(1-methyl-1H-imidazol-5-yl)methanol] | 104 | 0.13 | – | –
20 | CCN(CC)c1nc2ccc(C(O)(c3ccc(C(F)(F)F)nc3)c3cncn3C)cc2c(Cl)c1Oc1ccc(F)cc1 (single isomer, unassigned) [Example 9c] | – | – | 84 | 0.092
21 | CCOc1nc2ccc(C(O)(c3ccc(Cl)cc3)c3cncn3C)cc2c(Cl)c1Oc1ccccc1 (single isomer, unassigned) [Example 2b] | 92 | – | – | 0.66
